Tested on: VEcad and CD31 mRNA expression in EVCs
Conditions: DPI days 3-6, 5% O2, after 12 days
Protocol: Real-time quantitative RT-PCR. Two-step reverse transcription polymerase chain reaction (RT-PCR) was performed on differentiated and undifferentiated (day 0) hPSCs as previously described in accordance with Applied Biosystems manufacturer instructions (Kusuma et al., The FASEB Journal. 2012; 26:4925-4936). For each primer set (CD34, KDR, CD56, VEcad, CD31, ephrinB2, EphB4, Nrp1, Nrp2), the comparative […] method (Applied Biosystems, Foster City, Calif.) was used to calculate the amplification differences between different samples. The values for experiments were averaged and graphed with standard deviations.
ROS detection and inhibition. Previously published protocols were followed to detect and inhibit ROS production (Abaci et al., American Journal of Physiology—Cell Physiology. 2011; 301:C431-C440). For ROS detection, the culture media was replaced with 10 μM 2′,7′-dichlorodihydrofluorescein diacetate (H2-DCFDA) (Invitrogen) in PBS and incubated for 30 min at 37° C. Samples were washed with PBS three times prior to imaging. For ROS inhibition, cells were treated with diphenyleneiodonium (DPI) (Sigma-Aldrich) at a concentration of 10 μM.
DPI-treated cells were maintained in 5% O2 conditions for the second six days of differentiation but without DPI.

[1] = RT-PCR normalized to control (atmospheric) EVCs

c1ccc2c(c1)[I+]c1ccccc1-2 [DPI, diphenyleneiodonium]
CD31 expression compared to EVCs differentiated in 5% O2 without DPI: significantly lower | VEcad expression compared to EVCs differentiated in 5% O2 without DPI: significantly lower | expression of CD31 compared to control EVCs [1]: lower | expression of VEcad compared to control EVCs [1]: similar
